Data on one molecule can be found in patent US12590123B2, “Compounds and methods for treating cancer, viral infections, and allergic conditions” (Washington University, priority 2019, dated 2026).

This test has as its target T1, KLK5 (Homo sapiens, UniProt Q9Y337).
T1 construct: purchased R&D Systems 1108-SE-010
T1 sequence (Q9Y337 23-293): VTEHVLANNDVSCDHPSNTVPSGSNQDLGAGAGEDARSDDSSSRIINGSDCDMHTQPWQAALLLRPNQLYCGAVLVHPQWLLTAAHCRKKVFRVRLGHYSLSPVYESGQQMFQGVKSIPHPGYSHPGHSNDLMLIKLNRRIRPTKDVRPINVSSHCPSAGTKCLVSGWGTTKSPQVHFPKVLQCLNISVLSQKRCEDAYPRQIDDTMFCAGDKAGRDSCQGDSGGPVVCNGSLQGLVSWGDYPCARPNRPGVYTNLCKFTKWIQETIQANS
The test is described as follows: Fluorescent kinetic enzyme inhibitor assay of KLK5 (Boc-VPR-AMC). It is filed as biochemical. The following applies: Table 4; 7.5 nM KLK5, 100 μM substrate. As to the method: Fluorescent Kinetic Enzyme Inhibitor Assay of KLK5: Inhibitors (11-pt serial dilutions, 0-20 μM final concentration in reaction) were serially diluted in DMSO (2% DMSO final concentration) and then mixed with KLK5 (#1108-SE-010, R&D Systems, Minneapolis, Minnesota) in black 384 well plates (Corning #3575. Corning, NY). The final assay concentration for KLK5 is 7.5 nM in TNC buffer (25 mM Tris, 150 mM NaCl, 5 mM CaCl2), 0.01% Triton X-100, pH 8). After thirty minutes incubation at room temperature, Boc-VPR-AMC substrate was added. The final substrate concentrations for assay is 100 μM. Changes in fluorescence (excitation at 380 nm and emission at 460 nm) were measured at room temperature over time in a Biotek Synergy 2 plate reader (Winnoski, VT). Using GraphPad Prism version 6.04 software program, (GraphPad Software, San Diego, CA, graphpad.com), a four parameter curve fit was used to determine the inhibitor IC50s from a plot of the mean reaction velocity versus the inhibitor concentration. The IC50 values represent the average of three or more separate experimental determinations.

On to `CC(=O)N[C@H]1CC(=O)NCCCC[C@@H](C(=O)N[C@@H](CCCNC(=N)N)C(=O)c2nc3ccccc3s2)NC(=O)[C@H](Cc2ccccc2)NC1=O` [VD3112, (3S,6S,14S)-6-acetamido-N—((S)-1-(benzo[d]thiazol-2-yl)-5-guanidino-1-oxopentan-2-yl)-3-benzyl-2,5,8-trioxo-1,4,9-triazacyclotetradecane-14-carboxamide], for which the IC50 worked out at 2530 nM.
